Laboratory results taken from PubChem BioAssay (NCI).
Where “and” joins values, the source holds several entries; their conditions need not be identical. Identical values can stand only once.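 48-hour exposure; five concentrations; linearly interpolated endpoints. Abbreviation: GI50, concentration required for 50% inhibition of growth. Definition used: TGI = concentration required for complete inhibition of growth.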

Experiments:
Experiment in all cases: NCI anticancer screen, dose series, 48 h
ACHN renal = tested on: ACHN renal
CCRF-CEM leukemia = tested on: CCRF-CEM leukemia
COLO 205 colon = tested on: COLO 205 colon
IGROV1 ovarian = tested on: IGROV1 ovarian
NCI-H226 lung = tested on: NCI-H226 lung
NCI-H522 lung = tested on: NCI-H522 lung
SF-295 CNS = tested on: SF-295 CNS
SK-MEL-28 melanoma = tested on: SK-MEL-28 melanoma
NCI/ADR-RES ovarian = tested on: NCI/ADR-RES ovarian
T-47D breast = tested on: T-47D breast

SMILES	TGI (ACHN renal)	TGI (CCRF-CEM leukemia)	TGI (COLO 205 colon) [µM]	TGI (IGROV1 ovarian)	TGI (NCI-H226 lung) [µM]	TGI (NCI-H522 lung)	TGI (SF-295 CNS)	TGI (SK-MEL-28 melanoma)	GI50 (ACHN renal) [µM]	GI50 (CCRF-CEM leukemia) [µM]	GI50 (IGROV1 ovarian) [µM]	GI50 (NCI-H226 lung) [µM]	GI50 (NCI-H522 lung) [µM]	GI50 (NCI/ADR-RES ovarian) [µM]	TGI (NCI/ADR-RES ovarian) [µM]	GI50 (SF-295 CNS) [µM]	GI50 (T-47D breast) [µM]	TGI (T-47D breast) [µM]	GI50 (COLO 205 colon) [µM]	GI50 (SK-MEL-28 melanoma) [µM]
Cc1ccc(-n2c3nc(=O)n(C)c(=O)c-3nc3ccccc32)c(C)c1	15.8 µM	41.6 µM	13	36.4 µM	30.7	29 µM	22.9 µM	–	–	–	–	–	–	–	–	–	–	–	–	–
CC(C)(C)OC(=O)N[C@H]1CC(=O)c2ccccc2N(CC(=O)O)C1=O	> 100 µM	> 100 µM	> 100	> 100 µM	> 100	> 100 µM	> 100 µM	> 100 µM	–	–	–	–	–	–	–	–	–	–	–	–
Cc1ccccc1Nc1cc(O)c2c(=O)cc(-c3ccccc3)oc2c1	> 100 µM	> 100 µM	–	> 100 µM	> 100	> 100 µM	> 100 µM	–	4.25	2.25	3.2	4.11	1.79	1.28	> 100	2.36	2.96	> 100	–	–
O=C(Nc1ccccc1C(=O)NC(=O)c1ccccc1NC(=O)c1ccccc1)c1ccccc1	36.3 µM	16.4 µM	2.87	5.93 µM	–	–	26.6 µM	10.6 µM	–	–	–	–	–	–	–	–	–	–	–	–
O=c1c2ccccc2nc(-c2cccc(Cl)c2)n1NC1OC(CO)C(O)C(O)C1O (centres undefined)	> 100 µM	> 100 µM	> 100	> 100 µM	> 100	> 100 µM	> 100 µM	> 100 µM	–	–	–	–	–	–	–	–	–	–	–	–
O=[N+]([O-])c1cccnc1S(=O)(=O)c1ccccc1	11.4 µM	> 100 µM	11	20.3 µM	34.7	2.82 µM	32.5 µM	34.6 µM	–	–	–	–	–	–	–	–	–	–	–	–
[O-][n+]1c2cccc(O)c2[n+]([O-])c2cccc(O)c21	51.8 µM	56 µM	> 100	69 µM	–	> 100 µM	> 100 µM	–	–	–	–	–	–	–	> 100	–	–	> 100	–	–
COC(=O)C1CCC(C)CC1=O (centres undefined)	> 100 µM	> 100 µM	> 100	> 100 µM	–	> 100 µM	> 100 µM	> 100 µM	–	–	–	–	–	–	–	–	–	–	–	–
C[n+]1cn(CC(=O)c2ccccc2)c(C(N)=O)c1N	> 100 µM	> 100 µM	> 100	> 100 µM	> 100	> 100 µM	> 100 µM	> 100 µM	–	–	–	–	–	–	–	–	–	–	–	–
C[C@]12CCc3nc(Nc4ccc(O)cc4)sc3C1=CC[C@@H]1[C@@H]2CC[C@]2(C)/C(=N/NC(N)=S)CC[C@@H]12	2.99 µM	> 100 µM	3.39	3 µM	4.05	–	3.48 µM	3.4 µM	1.59	0.629	1.45	1.71	–	2.38	7.51	1.57	1.51	3.57	1.56	1.51
C/C(=N\NC(=S)N1CCC1)c1ccccn1	34.6 µM	–	> 100	22.7 µM	3.48	> 45.9 µM	49.2 µM	> 56 µM	0.00656	0.00658	0.00798	0.0117	0.00976	–	–	0.0285	0.0395	> 100	0.00486	–
CCCCCCCCCCCCCC(=O)O[C@H]1CC[C@H](NC(=O)[C@H](OC)[C@H](O)[C@@H](O)[C@H](O)/C=C/C(C)C)C(=O)N(C)C1	15 µM and > 23.8 µM	15 µM and 4.85 µM	–	15 µM and > 23.8 µM	–	0.269 µM and 0.168 µM	15 µM and 3.03 µM	15 µM and 3.57 µM	0.0306	0.00238	0.00377	0.544	0.00689	–	–	0.00238	–	–	–	0.00238
O=C1c2cccc3c(N4CCOCC4)ccc(c23)C(=O)N1CCN1CCN(CCCCCN2CCN(CCN3C(=O)c4cccc5c(N6CCOCC6)ccc(c45)C3=O)CC2)CC1	> 100 µM	> 100 µM	> 100	–	> 100	–	> 100 µM	> 100 µM	62.2	32.9	–	87.3	–	> 100	> 100	72	> 100	> 100	46.1	> 100
CC(C)N(C(=O)C12C3C4C1C1C4(C#N)C3C12C(=O)O)C(C)C (centres undefined)	> 100 µM	> 82 µM	> 100	> 100 µM	> 100	> 100 µM	> 100 µM	> 100 µM	–	–	–	–	–	–	–	–	–	–	–	–
COc1ccc(/C=C/C(=O)c2c(-c3ccccc3)nn(C)c(=O)c2N2CCCCC2)cc1	> 100 µM	40.2 µM	44	77.9 µM	–	27.3 µM	44.4 µM	30.2 µM	–	–	–	–	–	–	–	–	–	–	–	–
N#Cc1c(-c2ccccc2)c(-c2ccccc2)cc2c(=O)c3ccc(Cl)cc3[nH]c12	> 100 µM	> 100 µM	> 100	> 100 µM	> 100	–	> 100 µM	> 100 µM	–	–	–	–	–	–	–	–	–	–	–	–
OC1=CN=C(c2ccccc2)Oc2ccccc21	> 100 µM	> 100 µM	> 100	> 100 µM	97.5	–	> 100 µM	> 100 µM	–	–	–	–	–	–	–	–	–	–	–	–
O=C1C2C(C(=O)N1Cc1ccccc1)N(Cc1ccccc1)C(=O)N2Cc1ccccc1 (centres undefined)	> 100 µM	> 100 µM	> 100	> 100 µM	> 100	> 100 µM	> 100 µM	> 100 µM	–	–	–	–	–	–	–	–	–	–	–	–
O=C1OC(=O)c2c1nc1ccccc1c2-c1ccccc1	> 100 µM	> 100 µM	> 100	> 100 µM	> 100	> 100 µM	> 100 µM	–	–	–	–	–	–	–	–	–	–	–	–	–
CCN(CC)CCCC(Nc1c2ccc(Cl)cc2nc2ccc(OC)cc12)c1ccc(Cl)cc1 (centres undefined)	2.81 µM	2.07 µM	2.87	–	–	3.09 µM	2.77 µM	2.9 µM	1.38	0.53	–	–	1.46	1.47	3.08	1.3	1.85	3.96	1.31	1.34
